Like-named read-outs stand apart in the source and are kept apart here.
Tests used:
[1] = for behenic acid conjugated colchicine in plasma: rats, 1 mg/kg
Procedure: The route of administration and the PK profile for liposomes colchicine were evaluated. The scaled-up formulation of liposomes colchicine, 15 mL, ghost formulation, non-liposomal behenic acid-conjugated colchicine and free colchicine were evaluated to determine the PK profile of liposomes colchicine, as a function of route of administration, intra-peritoneal injection and oral gavage. This preliminary in vivo study is designed to estimate PK parameters of liposomes colchicine and mode of administration of the liposomes. This study was performed using 10 rats divided into 4 groups as specified in FIG. 14. Rats received colchicine or liposomes-colchicine at 1 mg/kg by intra-peritoneal injection or oral gavage. Two and 24 hours after administration, blood was collected for a quantification of plasmatic colchicine and liposomes by liquid chromatography-mass spectrometry (LC-MS/MS). […] All plasma samples were analyzed for colchicine and colchicine-behenic acid conjugate.
LC/MS samples were prepared as per standard plasma extraction protocol.

HUVEC endothelial cells = conditions: 24 hour stimulation, 0.1 to 10000 nM
Procedure: Cell toxicity was tested on RAW264.7 macrophages and HUVEC endothelial cells. All cells were plated on 96-wells plate (2000 and 8000 cells per well, respectively) and exposed to colchicine or controls three days after (FIGS. 11A and 11B). Cells were exposed to commercialized colchicine (#9754, Sigma-Aldrich), behenic-acid colchicine or liposomal nanoparticles-colchicine (liposomes-colchicine, generated by the nanoSTAR Institute) as well as their respective controls (free media, ethanol/DMSO, ghost liposomes) from 0.1 to 10000 nM. After 24 hours of stimulation, media was removed and replaced with MTT solution (M2128, Sigma-Aldrich) at 0.375 mg/mL for 4 hours at 37° C. Viable cells produced dark blue formazan products. These products were dissolved in an isopropanol/Triton X-100, 10%/HCl solution, and read at 575 nm for absorbance density values to determine the cell viability. The percentage of the viable cells was calculated using the following formula: (%)=[100×(colchicine compound absorbance)/(own control absorbance)].

[2] = cited from earlier work
[3] = tested on: microtubules, HUVEC endothelial cells; conditions: 100 nM, 24 hours
Procedure: (§1) The efficiency of colchicine to bind microtubules and alter their polymerization was evaluated on HUVEC endothelial cells (FIG. 12) and J774 macrophages (FIG. 13). Cells were plated, respectively, at 5000 and 10000 cells/cm2 three days before colchicine stimulation. […] After 24 hours of stimulation, cells were fixed with paraformaldehyde 4% for 10 minutes. Blocking was performed with 10% normal goat serum with 0.2% Triton X-100. The immunocytometry staining used an α/β-tubulin antibody (#2148, Cell Signaling, 1/100, overnight, +4° C.) followed with a goat anti-rabbit antibody Alexa 555 (#A21429, Invitrogen, 1/200, 1 hour, room temperature). DAPI was used for nuclear staining. Pictures at 20× magnification were taken using AxioVision software SE64 4.9.1 (Zeiss).

[4] = tested on: microtubules, J774 macrophages; conditions: 100 nM, 24 hours
Procedure: as §1

tubulin = conditions: cited from earlier work
[5] = rats treated with behenic acid conjugated colchicine

CCCCCCCCCCCCCCCCCCCCCC(=O)OCC(=O)N[C@H]1CCc2cc(OC)c(OC)c(OC)c2-c2ccc(OC)c(=O)cc21 [AI-3-25]
colchifoline in plasma [1, 5]: found | free colchicine as a metabolite in plasma [1, 5]: not found | behenic acid conjugated colchicine in plasma ([1]; IP, 2 hours): presence | behenic acid conjugated colchicine in plasma ([1]; oral gavage): diminished levels

COc1cc2c(c(OC)c1OC)-c1ccc(OC)c(=O)cc1[C@@H](NC(C)=O)CC2 [Colchicine, colchicine]
cell viability (MTT) (HUVEC endothelial cells): decreased cell viability | log P [2]: about 1.5 | Biopharmaceutical Classification System class ([2]; high solubility and low permeability): class III | microtubule polymerization, cell division and cell shape [3]: significantly dysregulated microtubule polymerization, cell division and cell shape | microtubule polymerization, cell division and cell shape [4]: significantly dysregulated microtubule polymerization, cell division and cell shape

COc1cc2c(c(OC)c1OC)-c1ccc(OC)c(=O)cc1[C@@H](NC(=O)CO)CC2 [colchifoline, N-(2-hydroxyacetyl) colchicine]
tubulin binding compared with colchicine (tubulin): stronger

Reference: patent publication US20250288682A1, “DEVELOPMENT OF NANO-ENCAPSULATED FATTY-ACYL CONJUGATED COLCHICINE” (priority 2022, published 2025)
